# According to patent US4489091A, “Antilipemic and anti-inflammatory compositions containing sulfonate derivatives” (Taiho Pharmaceutical Company Limited, priority 1980, dated 1984):
# Where two headings read alike, the source gives them in different places.
# Legend:
# esterase = assay: Esterase inhibiting activity; format: biochemical; details: rat liver microsome esterase, methyl butyrate substrate, pH 8.0, 37° C., 60 minutes; read-out: IC50 for esterases
# Protocol: A 10 micromole quantity of methyl butyrate in a 50% ethanol solution is added as a substrate to a specified amount of buffer solution containing 0.1 mole of trishydrochloric acid (pH 8.0). To the mixture is further added a 50% ethanol solution of the compound of the invention, immediately followed by addition of an esterase solution prepared from a purified microsome fraction of the liver of a rat (adjusted to hydrolyze 9 micromoles of methyl butyrate at 37° C. in one hour) as an enzyme solution. The mixture is reacted at 37° C. for 60 minutes.
# After the reaction, alkaline hydroxylamine is added to the mixture to form a hydroxamic acid derivative of methyl butyrate, and a ferric salt is added to the derivative. The resulting red color is colorimetrically determined (at a wavelength of 540 nm) to determine the amount of remaining methyl butyrate. The esterase inhibiting ratios of the present compound at least at three concentrations are plotted as ordinate, and the logarithms of the concentrations as abscissa to obtain a line, which gives the 50% inhibition concentration (IC50).
# Acute toxicity = details: rat, in vivo
# From the text: Six-week-old male Wistar rats weighing 180 to 200 g are used, 5 rats in each group. Each compound of the invention is suspended in a 30% aqueous solution of polyethylene glycol 6000 and orally given to the rat at the dosage shown in Table 2. The animals are checked for poisoning, body weight and survival to determine the LD50 value.
# triglycerides = assay: Antilipemic effect: percent triglycerides inhibition in plasma of rats given an olive oil-cholesterol mixture; format: in vivo, male Wistar rats; details: for inhibition in vivo at 100 mg/kg: read-out: Anti-lipemic effect, TG (percent triglycerides inhibition); for inhibition in vivo at 200 mg/kg: oral 200 mg/kg (asterisked values), read-out: Anti-lipemic effect, TG (percent triglycerides inhibition), asterisked
# Summary of the method: (§1)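 Male Wistar rats, seven weeks old, 200 to 220 g, 5 per group, dosed orally at 100 or 200 mg/kg in olive oil-cholesterol mixture (15% cholesterol) at 10 ml/kg. Plasma triglycerides measured at 2 hours, total cholesterol at 8 hours, by enzymatic kits; percent inhibition calculated relative to vehicle control and untreated normal groups.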
# chymotripsin = chymotripsin (Bos taurus, UniProt P00766); assay: Chymotripsin inhibiting activity; format: biochemical; details: 0.5 h; compound 1×10^-4 mole, ATEE substrate, pH 8.0, 37° C.; read-out: Percent chymotripsin inhibition
# Protocol: Chymotripsin (0.1 unit) serving as an enzyme solution is added to a specified quantity of buffer solution containing 0.1 mole of trishydrochloric acid (pH 8.0). To the mixture is further added a 50% ethanol solution of the compound of the invention so that the resulting mixture contains the compound in a concentration of 1×10^-4 mole. The mixture is reacted at 37° C. for 20 minutes.
# On completion of the reaction, 10 micromoles of N-acetyl-L-thyrosine ethyl ester (ATEE) serving as a substrate is added to the mixture, and the resulting mixture is reacted at 37° C. for 30 minutes.
# After the completion of the reaction, the amount of remaining ATEE is determined by the same hydroxamic acid method as above. The percent chymotripsin inhibition is given by [formula] wherein A is the amount of hydrolyzed esters in the reaction system not containing the compound of the invention, and B is the amount of hydrolyzed esters in the reaction system containing the present compound.
# cholesterol = assay: Antilipemic effect: percent total cholesterol inhibition in plasma of rats given an olive oil-cholesterol mixture; format: in vivo, male Wistar rats; details: for inhibition in vivo at 100 mg/kg: read-out: Anti-lipemic effect, CS (percent cholesterol inhibition); for Anti-lipemic effect, CS (percent cholesterol inhibition), asterisked: oral 200 mg/kg (asterisked values)
# Summary of the method: as §1
# [1] = oral 100 mg/kg, plasma 2 hours after dosing, Wistar rat
# [2] = oral 100 mg/kg, plasma 8 hours after dosing, Wistar rat
# [3] = oral, six-week-old male Wistar rats, suspended in 30% aqueous polyethylene glycol 6000, read-out: LD50
# [4] = plasma 2 hours after dosing, Wistar rat
# [5] = plasma 8 hours after dosing, Wistar rat
SMILES,IC50 (esterase) [nM],LD50 (Acute toxicity; po) [mg/kg],inhibition in vivo at 100 mg/kg (triglycerides; [1]) [%],inhibition at 100 µM (chymotripsin) [%],inhibition in vivo at 100 mg/kg (cholesterol; [2]) [%],LD50 (Acute toxicity; [3]) [mg/kg],"inhibition in vivo at 100 mg/kg (triglycerides; Rattus norvegicus, po, 2 h) [%]","inhibition in vivo at 100 mg/kg (cholesterol; Rattus norvegicus, po, 8 h) [%]",inhibition in vivo at 200 mg/kg (triglycerides; [4]) [%],"Anti-lipemic effect, CS (percent cholesterol inhibition), asterisked (cholesterol; [5]) [%]"
CCCC(=O)COS(=O)(=O)c1cc(C)c(C)cc1C [Compound 116],1300,> 2000,90,0,82,,,,,
"CCCC(=O)COS(=O)(=O)c1c(C)cc(C)cc1C [Compound 73, 2-oxopentyl-2,4,6-trimethylbenzenesulfonate]",1000,,92,13,90,> 3000,,,,
CCCCCCC(=O)COS(=O)(=O)c1ccc(C)cc1 [Compound 19],3400,> 3000,78,100,41,,,,,
CCCCCCC(=O)COS(=O)(=O)c1ccccc1C [Compound 31],17,> 2000,61,100,31,,,,,
CCCCC(CC)C(=O)COS(=O)(=O)c1ccccc1C (stereo not shown) [Compound 32],350,> 3000,70,0.4,43,,,,,
CCCCCCCCCC(=O)COS(=O)(=O)c1ccccc1 [Compound 10],7.6,,,14,,> 3000,80,61,,
C=CCCCCCCCCC(=O)COS(=O)(=O)c1c(C)cc(C)c(C)c1C [Compound 101],30,> 4000,,23,,,,,54,
CCCCC(=O)COS(=O)(=O)c1c(C)cc(C)c(C)c1C [Compound 96],0.16,> 3000,68,12,71,,,,,
CCCCCCCC(=O)COS(=O)(=O)c1ccc(OCC)cc1 [Compound 47],590,> 4000,,67,60,,,,82,
CCOc1ccc(S(=O)(=O)OCC(=O)CCC(C)CC)cc1 (stereo not shown) [Compound 143],2000,> 4000,,79,,,,,62,
CCCC(CC)C(=O)COS(=O)(=O)c1ccc(OCC)cc1 (stereo not shown) [Compound 134],560000,> 4500,82,2,65,,,,,
CCCCCCC(=O)COS(=O)(=O)c1ccccc1 [Compound 9],68,> 3000,88,96,62,,,,,
C=CCCC(=O)COS(=O)(=O)c1c(C)cc(C)cc1C [Compound 86],120,> 3000,79,14,66,,,,,
CCCCCCCCCC(=O)COS(=O)(=O)c1ccc(OC)cc1 [Compound 38],100,> 4000,,45,,,,,67,
CCCC(C)CC(=O)COS(=O)(=O)c1c(C)cc(C)cc1C (stereo not shown) [Compound 158],400,> 4000,74,17,70,,,,,
CCCCC(CCCC)C(=O)COS(=O)(=O)c1ccc(C)cc1 [Compound 129],7000,> 3000,66,30,45,,,,,

SMILES,IC50 (esterase) [nM],LD50 (Acute toxicity; po) [mg/kg],inhibition in vivo at 100 mg/kg (triglycerides; [1]) [%],inhibition at 100 µM (chymotripsin) [%],inhibition in vivo at 100 mg/kg (cholesterol; [2]) [%],LD50 (Acute toxicity; [3]) [mg/kg],"inhibition in vivo at 100 mg/kg (triglycerides; Rattus norvegicus, po, 2 h) [%]","inhibition in vivo at 100 mg/kg (cholesterol; Rattus norvegicus, po, 8 h) [%]",inhibition in vivo at 200 mg/kg (triglycerides; [4]) [%],"Anti-lipemic effect, CS (percent cholesterol inhibition), asterisked (cholesterol; [5]) [%]"
CCCCCC(=O)COS(=O)(=O)c1c(C)c(C)cc(C)c1C [Compound 90],2.6,> 3000,,13,,,,,59,
CCCCCCCC(=O)COS(=O)(=O)c1ccc(OCCCC)cc1 [Compound 56],1000,> 3000,,50,,,,,64,42
CCCCCCCCC(=O)COS(=O)(=O)c1c(C)cc(C)cc1C [Compound 78],0.63,> 4000,56,72,61,,,,,
CCCCCC(=O)COS(=O)(=O)c1ccc(C)cc1 [Compound 18],1600,> 3000,94,77,40,,,,,
Cc1ccc(S(=O)(=O)OCC(=O)CCCCCCC(C)C)cc1 [Compound 27],670,> 3000,,17,,,,,59,
Cc1cc(C)c(S(=O)(=O)OCC(=O)CC(C)C)c(C)c1 [Compound 149],1000,> 3000,81,7,67,,,,,
CCCC(=O)COS(=O)(=O)c1cc(C)ccc1C [Compound 111],280,> 2000,73,4,51,,,,,
CCOc1ccc(S(=O)(=O)OCC(=O)CCCC(C)C)cc1 [Compound 145],3300,> 3000,61,87,62,,,,,
CCCCCC(C)C(=O)COS(=O)(=O)c1c(C)cc(C)cc1C (stereo not shown) [Compound 162],2000,> 4000,75,32,77,,,,,
CCCC(CC)C(=O)COS(=O)(=O)c1c(C)cc(C)cc1C (stereo not shown) [Compound 151],32000,> 3000,83,8,77,,,,,
CCCCCCCC(=O)COS(=O)(=O)c1ccc(OC)cc1 [Compound 37],150,> 3000,62,91,62,,,,,
CCC(C)CC(=O)COS(=O)(=O)c1c(C)cc(C)cc1C (stereo not shown) [Compound 153],640,> 4000,82,9,83,,,,,
CCCCCCCCCCC(=O)COS(=O)(=O)c1c(C)cc(C)cc1C [Compound 80],0.032,> 4000,,55,,,,,63,
CCCCCC(C)C(=O)COS(=O)(=O)c1ccc(C)cc1 (stereo not shown) [Compound 130],4000,> 3000,72,52,51,,,,,
CCCCCCCCC(=O)COS(=O)(=O)c1c(C)cc(C)c(C)c1C [Compound 98],0.027,> 4000,,26,,,,,70,71
CCCC(=O)COS(=O)(=O)c1ccc2ccccc2c1 [Compound 5],3600,> 2500,86,17,73,,,,,
